These results are taken from ChEMBL document CHEMBL5209569, “Membrane potential based assay for SLC6A8 using HEK-293 JumpIN SLC6A8 OE cells” (2022).

The pEC50 is the negative decadic logarithm of the EC50, by convention in mol/L. Low readings indicate a large EC50, high ones a small EC50.

pEC50: −log10 of the molar value.

In the test the target is T1, Sodium- and chloride-dependent creatine transporter 1 (Homo sapiens, UniProt P48029).
T1 sequence (P48029 whole entry): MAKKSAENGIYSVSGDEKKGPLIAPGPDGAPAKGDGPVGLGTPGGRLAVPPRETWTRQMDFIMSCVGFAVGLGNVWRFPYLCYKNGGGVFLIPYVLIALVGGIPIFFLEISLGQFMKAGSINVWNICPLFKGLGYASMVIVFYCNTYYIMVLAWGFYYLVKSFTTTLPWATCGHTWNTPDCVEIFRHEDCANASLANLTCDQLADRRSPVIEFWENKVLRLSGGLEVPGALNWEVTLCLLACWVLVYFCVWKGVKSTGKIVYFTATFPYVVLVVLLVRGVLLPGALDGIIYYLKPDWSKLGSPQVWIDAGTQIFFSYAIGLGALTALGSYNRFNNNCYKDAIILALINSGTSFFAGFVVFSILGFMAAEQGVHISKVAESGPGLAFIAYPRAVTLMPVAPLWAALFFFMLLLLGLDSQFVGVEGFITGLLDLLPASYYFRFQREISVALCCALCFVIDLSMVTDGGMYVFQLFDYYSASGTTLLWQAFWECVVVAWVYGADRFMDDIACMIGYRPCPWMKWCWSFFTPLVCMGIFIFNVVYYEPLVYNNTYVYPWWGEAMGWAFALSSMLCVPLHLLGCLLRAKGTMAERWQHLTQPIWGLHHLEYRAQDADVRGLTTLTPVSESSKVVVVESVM
Nature of the test: Substrate uptake by the Sodium- and Chloride-Dependent Creatine Transporter 1 (CRTR, SLC6A8) as assessed by the fluorescent FLIPR membrane potential dye in HEK-293 JumpIN-SLC6A8 cells (PubChem AID: 1794823). It is filed as functional, cell-based, HEK293.

The compound `CN(CC(=O)O)C(=N)N` [CREATINE] showed a pEC50 of 5.30.
